Measurements as given in US12622910B2, “Inhibitors of Bruton's tyrosine kinase and methods of their use” (Janssen Pharmaceutica NV, priority 2021, dated 2026).
Read-outs that look alike come from different tables or passages of the source.

Test: Phase 1 first-in-human study, plasma pharmacokinetics
Assay type: in vivo
Details: for Tmax / Cmax / AUC(0-t) / half-life / AUC(0-inf): plasma
Experimental: Safety, tolerability, PK, and BTKO were assessed for six doses of compound of Formula (III) oral solution (4, 12, 36, 100, 200, 400 mg) in participants under fasted conditions. The SAD part comprised 10 cohorts of 8 participants each (FIG. 1). In each cohort receiving compound of Formula (III) oral solution (Cohorts 1-9), 6 participants were randomized to receive compound of Formula (III) and 2 to receive placebo. All participants in Cohort 10 received compound of Formula (III) as an oral capsule. All 10 cohorts included 2 sentinel participants who were dosed ˜24 hours prior to the rest of the cohort. In cohorts receiving compound of Formula (III) oral solution, 1 sentinel participant received compound of Formula (III) and the other received placebo.
Six male escalating dose cohorts received a single oral dose of 4, 12, 36, 100, 200, 400 mg compound of Formula (III) or placebo solution under fasted conditions. Gender effects were assessed in 2 female cohorts whose participants received either a 36 or 100 mg dose of compound of Formula (III) or placebo as an oral solution under fasted conditions. Food effects were evaluated in a male cohort receiving compound of Formula (III) 100 mg or placebo as an oral solution after a high-fat breakfast.
Safety, tolerability, and PK of a solid dose formulation of compound of Formula (III) were assessed in an additional male cohort (Cohort 10) that received 3×35 mg (105 mg) of compound of Formula (III) in the fasted state. Since all the participants received the same dose of compound of Formula (III), this cohort was not blinded.
Safety, tolerability, PK, and BTKO following multiple compound of Formula (III) doses were evaluated in 3 dose escalation cohorts with a total of 18 participants (males: 9, females: 9) receiving active study drug. In each cohort, 3 males and 3 females were randomized to receive 36 mg once-daily (QD), 100 mg QD, or 200 mg QD compound of Formula (III) oral solution and 3 participants (males: 2; female: 1) to receive placebo. Two male participants in each cohort served as sentinel participants: one received compound of Formula (III) and other received placebo ˜48 hours prior to other participants in the cohort. All safety and tolerability data (through the follow-up visit), PK data (through at least 24 hours after last dose administration), and all available PD data were reviewed from each cohort before a decision was made to dose escalate.
Sample collection—For the PK assessment of compound of Formula (III), venous blood samples (2 to 4 mL each) were collected predose and at 15 min, 0.5, 1, 1.5, 2, 2.5, 3, 4, 6, 8, 12, 24, 36, 48, and 72 hours post-dose in Part 1. In Part 2, samples were collected predose and at 15 min, 0.5, 1, 1.5, 2, 2.5, 3, 4, 6, 8, 12 hours post-dose on day 1, predose and 1 hour post-dose on days 2-9, and predose and at 15 min, 0.5, 1, 1.5, 2, 2.5, 3, 4, 6, 8, 12, 24, 48, and 72 hours after the last dose on day 10. Plasma samples were analyzed to determine concentrations of compound of Formula (III) using a scientific validated, specific, and sensitive liquid chromatography-mass spectrometry (LC-MS/MS) method.
The PK analysis for the compound of Formula (III) samples was performed using a non-compartmental method with validated Phoenix® WinNonlin® (version 8.0, Certara L.P.).

[1] = 36 mg QD oral solution, fed, Day 10
[2] = 100 mg QD oral solution, fed, Day 10
[3] = 200 mg QD oral solution, fed, Day 10
[4] = female, human, po, 36 mg, single 36 mg oral solution, female fasted
[5] = female, human, po, 100 mg, single 100 mg oral solution, female fasted
[6] = male, human, po, 4 mg, single 4 mg oral solution, male fasted
[7] = male, human, po, 12 mg, single 12 mg oral solution, male fasted

For `C=CC(=O)N[C@H]1CCC[C@H]1NC(=O)c1sc2nccc3c2c1NC(=O)N3c1cnc(CC(C)C)cc1C` (atropisomer, axis not shown) [compound of Formula (III), N-((1R,2S)-2-Acrylamidocyclopentyl)-5-(S)-(6-isobutyl-4-methylpyridin-3-yl)-4-oxo-4,5-dihydro-3H-1-thia-3,5,8-triazaacenaphthylene-2-carboxamide], the ARCmax [1] was 1.04, the Cmin [1] was 0.552 ng/mL and the ARCmax [2] was 0.968. For the same molecule, the Cmin [2] was 1.51 ng/mL, the “mean Cmax/Dose lower, capsule vs oral solution” value (105 mg capsule vs 100 mg solution) was “approximately 64%” and the Ae% dose (200 mg QD oral solution, fed, Day 1) was 0.234. It also gave an ARCmax [3] of 1.21, an Ae% dose [3] of 0.234 and a CLR [3] of 0.186 L/h. The Cmin [3] was 4.96 ng/mL, the Tmax (both sexes, human, oral, Part 2, day 1, 36-200 mg QD, read-out: median tmax across doses) was 1.25 to 1.77 h and the Cmax (both sexes, human, po, 36 mg, 36 mg QD oral solution, fed, Day 1) was 193 ng/mL. For the same molecule, the AUC(0-t) (both sexes, human, po, 36 mg, 36 mg QD oral solution, fed, Day 1, read-out: AUC0-24 h) was 925 ng·h/mL, the Tmax (both sexes, human, po, 36 mg, 36 mg QD oral solution, fed, Day 1, read-out: tmax, median (min-max)) was 1.5 h and the Cmax (both sexes, human, po, 36 mg, 36 mg QD oral solution, fed, Day 10) was 199 ng/mL. It also gave an AUC(0-t) (both sexes, human, po, 36 mg, 36 mg QD oral solution, fed, Day 10, read-out: AUC0-24 h) of 889 ng·h/mL, a half-life (both sexes, human, po, 36 mg, 36 mg QD oral solution, fed, Day 10, read-out: t1/2, dom (converted)) of 1.5 h and a half-life (both sexes, human, po, 36 mg, 36 mg QD oral solution, fed, Day 10, read-out: t1/2, λz (converted)) of 4.9 h. For the same molecule, the Tmax (both sexes, human, po, 36 mg, 36 mg QD oral solution, fed, Day 10, read-out: tmax, median (min-max)) was 2 h, the Cmax (both sexes, human, po, 100 mg, 100 mg QD oral solution, fed, Day 1) was 464 ng/mL and the AUC(0-t) (both sexes, human, po, 100 mg, 100 mg QD oral solution, fed, Day 1, read-out: AUC0-24 h) was 1820 ng·h/mL. For the same molecule, the Tmax (both sexes, human, po, 100 mg, 100 mg QD oral solution, fed, Day 1, read-out: tmax, median (min-max)) was 1.25 h, the Cmax (both sexes, human, po, 100 mg, 100 mg QD oral solution, fed, Day 10) was 424 ng/mL and the AUC(0-t) (both sexes, human, po, 100 mg, 100 mg QD oral solution, fed, Day 10, read-out: AUC0-24 h) was 1690 ng·h/mL. The half-life (both sexes, human, po, 100 mg, 100 mg QD oral solution, fed, Day 10, read-out: t1/2, dom (converted)) was 1.8 h, the half-life (both sexes, human, po, 100 mg, 100 mg QD oral solution, fed, Day 10, read-out: t1/2, λz (converted)) was 9.6 h and the Tmax (both sexes, human, po, 100 mg, 100 mg QD oral solution, fed, Day 10, read-out: tmax, median (min-max)) was 1.53 h. It also gave a Cmax (both sexes, human, po, 200 mg, 200 mg QD oral solution, fed, Day 1) of 719 ng/mL, an AUC(0-t) (both sexes, human, po, 200 mg, 200 mg QD oral solution, fed, Day 1, read-out: AUC0-24 h) of 2560 ng·h/mL and a Tmax (both sexes, human, po, 200 mg, 200 mg QD oral solution, fed, Day 1, read-out: tmax, median (min-max)) of 1.77 h. The Cmax (both sexes, human, po, 200 mg, 200 mg QD oral solution, fed, Day 10) was 839 ng/mL, the AUC(0-t) (both sexes, human, po, 200 mg, 200 mg QD oral solution, fed, Day 10, read-out: AUC0-24 h) was 3160 ng·h/mL and the half-life (both sexes, human, po, 200 mg, 200 mg QD oral solution, fed, Day 10, read-out: t1/2, dom (converted)) was 1.9 h. It also gave a half-life (both sexes, human, po, 200 mg, 200 mg QD oral solution, fed, Day 10, read-out: t1/2, λz (converted)) of 23.1 h, a Tmax (both sexes, human, po, 200 mg, 200 mg QD oral solution, fed, Day 10, read-out: tmax, median (min-max)) of 2 h and a CL renal (both sexes, human, urine and plasma, 200 mg QD oral solution, fed, Day 1) of 3.1 mL/min. It also gave an AUC(0-inf) [4] of 22.7 ng·h/mL, a Cmax [4] of 233 ng/mL and an AUC(0-t) (female, human, po, 36 mg, single 36 mg oral solution, female fasted, read-out: AUC0-24 h) of 819 ng·h/mL. It also gave an AUC(0-t) (female, human, po, 36 mg, single 36 mg oral solution, female fasted, read-out: AUClast) of 816 ng·h/mL, a half-life (female, human, po, 36 mg, single 36 mg oral solution, female fasted, read-out: t1/2, dom (converted)) of 1.6 h and a half-life (female, human, po, 36 mg, single 36 mg oral solution, female fasted, read-out: t1/2, λz (converted)) of 1.9 h. It also gave a Tmax (female, human, po, 36 mg, single 36 mg oral solution, female fasted, read-out: tmax, median (min-max)) of 1 h, an AUC(0-inf) [5] of 1340 ng·h/mL and a Cmax [5] of 650 ng/mL. It also gave an AUC(0-t) (female, human, po, 100 mg, single 100 mg oral solution, female fasted, read-out: AUC0-24 h) of 1420 ng·h/mL, an AUC(0-t) (female, human, po, 100 mg, single 100 mg oral solution, female fasted, read-out: AUClast) of 1460 ng·h/mL and a half-life (female, human, po, 100 mg, single 100 mg oral solution, female fasted, read-out: t1/2, dom (converted)) of 1.6 h. It also gave a half-life (female, human, po, 100 mg, single 100 mg oral solution, female fasted, read-out: t1/2, λz (converted)) of 11.6 h, a Tmax (female, human, po, 100 mg, single 100 mg oral solution, female fasted, read-out: tmax, median (min-max)) of 0.5 h and an AUC(0-inf) [6] of 155 ng·h/mL. It also gave a Cmax [6] of 43.5 ng/mL, an AUC(0-t) (male, human, po, 4 mg, single 4 mg oral solution, male fasted, read-out: AUC0-24 h) of 157 ng·h/mL and an AUC(0-t) (male, human, po, 4 mg, single 4 mg oral solution, male fasted, read-out: AUClast) of 154 ng·h/mL. The half-life (male, human, po, 4 mg, single 4 mg oral solution, male fasted, read-out: t1/2, dom (converted)) was 1.6 h, the half-life (male, human, po, 4 mg, single 4 mg oral solution, male fasted, read-out: t1/2, λz (converted)) was 1.6 h and the Tmax (male, human, po, 4 mg, single 4 mg oral solution, male fasted, read-out: tmax, median (min-max)) was 1 h. The AUC(0-inf) [7] was 317 ng·h/mL, the Cmax [7] was 88 ng/mL and the AUC(0-t) (male, human, po, 12 mg, single 12 mg oral solution, male fasted, read-out: AUC0-24 h) was 319 ng·h/mL. For the same molecule, the AUC(0-t) (male, human, po, 12 mg, single 12 mg oral solution, male fasted, read-out: AUClast) was 316 ng·h/mL and the half-life (male, human, po, 12 mg, single 12 mg oral solution, male fasted, read-out: t1/2, dom (converted)) was 1.5 h.
